From US20220409629A1, “BENZODIAZEPINE DERIVATIVES FOR TREATING A RESPIRATORY SYNCYTIAL VIRUS (RSV) INFECTION” (priority 2019, published 2022) come the findings set out here.

Series [1] is described as follows: Rat pharmacokinetics in vivo. Conditions: male Sprague Dawley rats; for AUC(0-t): read-out: PO AUClast. On the procedure:
The pharmacokinetics of compounds were studied in vivo in rats at doses of 1 mg/kg (IV) and 10 mg/kg (PO).
Male rats (Sprague Dawley) surgically prepared with a jugular vein cannula were treated with experimental compounds via intravenous administration (IV; n=3; 1 mg/kg) or oral administration (PO; n=3; 10 mg/kg). Compounds were formulated as a solution in 40:60 dimethylacetamide:saline (IV administration), a suspension in 1% methyl cellulose (viscosity: 15 cP), 0.1% Tween80 in water (PO administration: Example 3), a solution in 10% DMSO/10% Cremaphor/80% water (PO administration: Examples 4, 11, 21, 23, 25, 26, 32) or a solution in 10% DMSO/20% Cremaphor/70% water (PO administration: Examples 19, 20, 22, 24, 30). […] Serial blood samples were collected via the cannula at 0.02, 0.08, 0.25, 0.5, 1, 2, 4, 6, 8 and 24 h post IV dosing of compound, and at 0.08, 0.25, 0.5, 1, 2, 4, 6, 8 and 24 h post oral dosing of compound, and plasma was prepared by centrifugation and stored immediately at −80° C. Samples were subsequently thawed, prepared for analysis by protein precipitation with acetonitrile, and analysed by tandem LCMS using electrospray ionisation using a matrix-matched calibration curve. PK parameters were calculated from the resulting data.

The subject of a further series is RSV A2. Description: RSV plaque reduction assay. The format is cell-based, respiratory syncytial virus (RSV). To be noted: human respiratory syncytial virus, HepG2; Hep-G2 cells, RSV A2, mean of at least two experiments. Put shortly:
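RSV A2 (100 PFU/well) premixed with eight serial compound dilutions, added to confluent Hep-G2 monolayers for 2 h at 37° C, then held 2 days under CMC overlay containing compound (DMEM, 2% FBS). Plaques immunostained (HRP/TrueBlue) and counted; EC50 is 50% reduction versus virus control from 4-parameter fit, mean of ≥2 experiments.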
A general note: Plaques are areas of infected cells; plaque reduction assays count them against a control.

[2] abbreviates: rat, in vivo, IV 1 mg/kg, PO 10 mg/kg.
Where [3] appears, read: rat, in vivo, IV 1 mg/kg, read-out: IV t½ (converted).
The mark [4] stands for this setting: rat, in vivo, PO 10 mg/kg, read-out: PO t½ (converted).
Setting [5] is: rat, in vivo, doses 1 mg/kg (IV) and 10 mg/kg (PO).
Where [6] appears, read: 8 h, doses 1 mg/kg (IV) and 10 mg/kg (PO).

Molecules are shown by their SMILES. Read-outs that look alike come from different tables or passages of the source.

As a reminder, the Vd is a proportionality between amount in the body and measured concentration, not a real space. A word on the clearance: it is the rate of elimination divided by the concentration. Higher therefore signals efficient removal. Broadly, the Cmax is the peak of the concentration-time curve. Broadly, the EC50 is the concentration giving half of the maximal effect. Read a low EC50 as higher potency in that assay.

Consider `CCn1ncc(C(=O)N[C@H]2N=C(c3ccccc3)c3ccccc3NC2=O)c1-c1ccc(NC(C)C)nc1F` [Example 3, 1-Ethyl-5-[2-fluoro-6-(propan-2-ylamino)pyridin-3-yl]-N-[(3S)-2-oxo-5-phenyl-1,3-dihydro-1,4-benzodiazepin-3-yl]pyrazole-4-carboxamide], for which the concentration at 8 h in series [1] (rat, in vivo, 8 h, doses 1 mg/kg (IV) and 10 mg/kg (PO), read-out: C 8 h) was found to be 108 ng/mL. In series [1] (rat, in vivo, IV 1 mg/kg), this molecule displayed a Vd of 2.4 L/kg and a clearance of 13.3 mL/min/kg. For the same molecule, the bioavailability in series [1] (setting [2]) was 17.1%. Moreover, in series [1] (setting [3]), the half-life is 2.2 h. Moreover, the AUC(0-t) in series [1] (rat, in vivo, PO 10 mg/kg) was 2070 ng·h/mL. For the same molecule, the half-life in series [1] (setting [4]) is 4.6 h. Besides, the Cmax in series [1] (setting [5]) was found to be 199 ng/mL. This molecule also gave a concentration for a half-maximal effect (EC50) in the series on RSV A2 of 0.097 µM.

With `CCn1ncc(C(=O)N[C@H]2N=C(c3ccccc3)c3ccccc3NC2=O)c1-c1ccc(NC2CC2)nc1F` [Example 4, 1-Ethyl-5-[2-fluoro-6-(cyclopropylamino)pyridin-3-yl]-N-[(3S)-2-oxo-5-phenyl-1,3-dihydro-1,4-benzodiazepin-3-yl]pyrazole-4-carboxamide], the “C 8 h” value in series [1] (setting [6]) stood at 470 ng/mL. For the same molecule, in series [1] (rat, in vivo, IV 1 mg/kg), the Vd was determined as 2 L/kg and the clearance came out at 22.7 mL/min/kg. In series [1] (setting [2]), the bioavailability turned out to be 124%. Besides, the half-life in series [1] (setting [3]) was 1.3 h. For the same molecule, in series [1] (rat, in vivo, PO 10 mg/kg), the AUC(0-t) was found to be 9020 ng·h/mL. The half-life in series [1] (setting [4]) was 2.2 h. Moreover, the concentration in series [1] (setting [5]) peaked (Cmax) at 1340 ng/mL. Further, the EC50 with RSV A2 amounted to 0.042 µM.

`O=C(N[C@H]1N=C(c2ccccc2)c2cccc(F)c2NC1=O)c1cnn(C2CCOCC2)c1-c1ccc(NC2CC2)nc1F` [Example 21, 5-[6-(Cyclopropylamino)-2-fluoropyridin-3-yl]-N-[(3S)-9-fluoro-2-oxo-5-phenyl-1,3-dihydro-1,4-benzodiazepin-3-yl]-1-(oxan-4-yl)pyrazole-4-carboxamide]: the “C 8 h” value in series [1] (setting [6]) is recorded as 385 ng/mL. In series [1] (rat, in vivo, IV 1 mg/kg), this molecule showed a Vd of 2.1 L/kg and a clearance of 18.6 mL/min/kg. In series [1] (setting [2]), the bioavailability was found to be 98.2%. The half-life in series [1] (setting [3]) is 1.7 h. In addition, the AUC(0-t) in series [1] (rat, in vivo, PO 10 mg/kg) was determined as 8180 ng·h/mL. Also, in series [1] (setting [4]), the half-life is 3.2 h. Further, the Cmax in series [1] (setting [5]) turned out to be 1590 ng/mL. The same molecule showed an EC50 with RSV A2 of 0.021 µM.

Regarding `CC(C)Nc1ccc(-c2c(C(=O)N[C@H]3N=C(c4ccccc4)c4cccc(F)c4NC3=O)cnn2C2CCOCC2)c(F)n1` [Example 22, N-[(3S)-9-fluoro-2-oxo-5-phenyl-1,3-dihydro-1,4-benzodiazepin-3-yl]-5-[2-fluoro-6-(propan-2-ylamino)pyridin-3-yl]-1-(oxan-4-yl)pyrazole-4-carboxamide], in series [1] (setting [6]), the “C 8 h” value is reported as 734 ng/mL. In series [1] (rat, in vivo, IV 1 mg/kg), this molecule had a Vd of 1.9 L/kg and a clearance of 10 mL/min/kg. Further, the bioavailability in series [1] (setting [2]) was 88.3%. Further, the half-life in series [1] (setting [3]) is 2.4 h. The AUC(0-t) in series [1] (rat, in vivo, PO 10 mg/kg) came out at 14900 ng·h/mL. Further, the half-life in series [1] (setting [4]) is 2.6 h. Further, the concentration in series [1] (setting [5]) peaked (Cmax) at 1440 ng/mL. For the same molecule, the response in the series with RSV A2 was half-maximal at 0.04 µM (EC50).

Turning to `CCNc1ccc(-c2c(C(=O)N[C@H]3N=C(c4ccccc4)c4cccc(F)c4NC3=O)cnn2C2CCOCC2)c(F)n1` [Example 24, 5-[6-(Ethylamino)-2-fluoropyridin-3-yl]-N-[(3S)-9-fluoro-2-oxo-5-phenyl-1,3-dihydro-1,4-benzodiazepin-3-yl]-1-(oxan-4-yl)pyrazole-4-carboxamide], in series [1] (setting [6]), the “C 8 h” value worked out at 182 ng/mL. For the same molecule, in series [1] (rat, in vivo, IV 1 mg/kg), the Vd came out at 1.4 L/kg and the clearance worked out at 15 mL/min/kg. Also, the bioavailability in series [1] (setting [2]) turned out to be 50%. In series [1] (setting [3]), the half-life is 1.3 h. Besides, the AUC(0-t) in series [1] (rat, in vivo, PO 10 mg/kg) worked out at 5540 ng·h/mL. For the same molecule, in series [1] (setting [4]), the half-life was 3.4 h. For the same molecule, the highest concentration (Cmax) in series [1] (setting [5]) turned out to be 791 ng/mL. The molecule also registered an EC50 in the series with RSV A2 of 0.033 µM.
